Measured values reported in US6610706B1, “Crystalline form of 6-hydroxy-3-(4-[2-(piperidin-1-yl)ethoxy]phenoxy)-2-(4-methoxyphenyl)benzo[b]thiophene hydrochloride” (Eli Lilly and Company, priority 1999, dated 2003).

Assays:
Assay type in all cases: physicochemical
[1] = Stability at ambient temperature relative to arzoxifene prepared per '474; details: relative to arzoxifene produced by the procedures taught in '474
[2] = Hygroscopicity / moisture sorption isotherms (VTI vacuum moisture balance)
Description: Hygroscopicicity studies were performed on F-I and F-III. Upon initial exposure of the samples to approximately 5% RH, there was an immediate weight gain of 1.5% and 1.7% moisture for F-I and F-III, respectively, equivalent to approximately 0.5 mole of water. Both forms show a continuous sorption of moisture through the entire humidity range, which is likely due to incorporation of water molecules in the lattices. The moisture sorption profiles for F-I and F-III reveal that these forms are essentially non-stoichiometric hydrates. At ambient relative humidity (about 50% RH), F-I contains approximately 1.7% water, corresponding to 0.5 moles of water, while F-III has sorbed about 3.0% water which corresponds to about 0.85 moles of water. The bulk forms of F-I and F-III rapidly equilibrate with the atmosphere, so that the water content observed by analytical techniques is a reflection of the relative humidity at the time of data collection. Lot-to-lot differences observed in the DSC data likely results from the samples being hydrated to different extents due to different ambient storage conditions. Hygroscopicity measurements were made for F-I and F-III using the VTI method as follows. Each sample was dried under vacuum at 60° C. until no further weight loss was detected, at which time the sample chamber was brought to 0% relative humidity. Moisture sorption isotherms were obtained at 25° C. using a VTI vacuum moisture balance with the following conditions: sample size 10-15 mg, adsorption/desorption range 0-95% relative humidity, step interval 5%, sample interval 10 minutes.

[3] = Aqueous solubility and dissolution rate comparison of crystal forms; details: comparison of the two forms
[4] = Stability of crystal forms stored at different relative humidities (XRD); details: entire relative humidity range (0-95% RH)
Description: XRD patterns were obtained for samples of F-I and F-III stored at different relative humidities (0, 22, 50, and 80%). There is a gradual shifting of the initial (0% RH) F-III peaks at about 13.8, 17.6, 18.0, 20.5 and 24.0° in 2θ as well as slight shifting of less intense peaks, as the relative humidity is increased. These observed changes in the XRD patterns of F-III indicate that the unit cell dimensions are changing, presumably to accommodate weakly held water molecules as the relative humidity is increased.
A similar experiment was carried out on F-I to determine whether varying the relative humidity would have a similar effect on its lattice (0, 25, 52, 73 and 95% RH). Very slight shifting of the 0% RH peaks at about 7.7, 18.3, 18.5, 20.5, 20.8° in 2θ is observed as the relative humidity is increased. […] The shifting of peaks in the XRD patterns of F-I is less dramatic than the peak shifts observed as F-III was exposed to different relative humidities.
XRD patterns were obtained on a Siemens D5000 X-ray powder diffractometer, equipped with a CuKα source (λ=1.54056 Å) and a Kevex solid-state detector, operating at 50 kV and 40 mA. Each sample was scanned between 4° and 35° in 2θ. Samples were allowed to equilibrate for at least 30 minutes at the desired temperature and/or relative humidity before data collection.

COc1ccc(-c2sc3cc(O)ccc3c2Oc2ccc(OCCN3CCCCC3)cc2)cc1.Cl [F-III, 6-hydroxy-3-(4-[2-(piperidin-1-yl)ethoxy]phenoxy)-2-(4-methoxyphenyl)benzo[b]thiophene hydrochloride]
stability at ambient temperature [1]: more stable at ambient temperature | water content at ambient relative humidity ([2]; about 50% RH): about 3.0% | water content at ambient relative humidity, in moles of water ([2]; about 50% RH): about 0.85 moles | water equivalent of the initial weight gain ([2]; approximately 5% RH): approximately 0.5 mole | immediate weight gain (moisture) upon initial exposure ([2]; approximately 5% RH, 25° C., after vacuum drying at 60° C.): 1.7% | aqueous solubilities (F-I versus F-III) [3]: comparable | dissolution rates (F-I versus F-III) [3]: comparable | stability over relative humidity range [4]: stable over the entire relative humidity range
